This experiment relates to human gustatory system. The experiment can be described thus: Measurement of sweetness activity using the human gustatory system (threshold of initially sensing sweetness). The class given is in vivo. The following applies: for Level of sweetness compared to sucrose (g/g): mass basis; for Level of sweetness compared to sucrose (g/g) / Level of sweetness compared to sucrose (molecular): sucrose = 1; for Level of sweetness compared to sucrose (molecular): molar basis; for times as sweet as sucrose in the same mass: rounded values of the text; for times as sweet as the wild-type brazzein in the same mass: relative to wild-type brazzein. Here is the method:
Since brazzein is not a sugar but a protein, sweetness may not be measured using a saccharimeter. Consequently, the activity was measured using the human gustatory system. Since the threshold values of initially sensing sweetness are different per person, the activity was measured by comparing the concentrations of initially sensing sweetness between a sugar solution and a brazzein solution. The subjects were composed of 10 men and 10 women, who were trained in advance. First, the standard sugar solution was sequentially tasted, and the concentration of initially sensing sweetness was checked. Brazzein was dissolved in distilled water (10.0 mg/mL) and diluted to set the concentration to 1 to 20 ng/mL, and the sweetness of the solution was tasted and the concentration of sensing sweetness as the threshold value was checked to measure the relative activity of sweetness among sugar, wild-type brazzein, and a brazzein variant. Specifically, the activity was measured as follows. Before the activity was measured, the subject was informed in advance of the test date and time to sense the taste in tiptop conditions, and was prohibited from drinking alcohol the day before the test date and eating food immediately before the test. The subject washed the palate with bottled water prepared, and then a sample according to the concentration of each kind was tasted in each of an amount of 100 μl sequentially from a low concentration to a high concentration. The resulting data were obtained by discarding dubious values through the Q test, minimizing the standard deviation, and calculating the average.

Where [1] appears, read: same threshold expressed in molar concentration.
[2] abbreviates: trained panel of 10 men and 10 women, concentration of initially sensing sweetness, 100 μl samples tasted from low to high concentration.

As to “K4R_H30R_E35D_E40K: brazzein multiple variant, 4th Lys to Arg in tertiary variant H30R_E35D_E40K, SEQ ID NO. 13 (DKCRKVYENYPVSKCQLANQCNYDCKLAKRARSGDCFYDKKRNLQCICDYCEY; Brazzein Variant)”, the “Level of sweetness compared to sucrose (g/g)” value is 2,000,000, the “Level of sweetness compared to sucrose (molecular)” value is 37131600, the “times as sweet as sucrose in the same mass” value (“times as sweet as sucrose” for short) was 2,000,000 times and the “times as sweet as the wild-type brazzein in the same mass” value was 2,500 times. Further, the “Threshold value of sweetness experiment” value under setting [1] worked out at 0.00156 µM. Besides, the “Threshold value of sweetness experiment” value under setting [2] was 0.0000010 g (100 mL)^−1.
On to “K4D_H30R_E35D_E40R: brazzein multiple variant, 4th Lys to Asp in tertiary variant H30R_E35D_E40R, SEQ ID NO. 20 (DKCDKVYENYPVSKCQLANQCNYDCKLAKRARSGDCFYDRKRNLQCICDYCEY; Brazzein Variant)”, for which the “Level of sweetness compared to sucrose (g/g)” value is given as 1,818,181, the “Level of sweetness compared to sucrose (molecular)” value was determined as 33687455, the “times as sweet as sucrose” value is on record as 1,800,000 times and the “times as sweet as the wild-type brazzein in the same mass” value was 2,270 times. Further, the “Threshold value of sweetness experiment” value under setting [1] was found to be 0.00172 µM. Besides, the “Threshold value of sweetness experiment” value under setting [2] was 0.0000011 g (100 mL)^−1.
Take “K4E_H30R_E35D_E40A: brazzein multiple variant, 4th Lys to Glu in tertiary variant H30R_E35D_E40A, SEQ ID NO. 15 (DKCEKVYENYPVSKCQLANQCNYDCKLAKRARSGDCFYDAKRNLQCICDYCEY; Brazzein Variant)”: the “Level of sweetness compared to sucrose (g/g)” value is reported as 2,000,000, the “Level of sweetness compared to sucrose (molecular)” value amounted to 36708861, the “times as sweet as sucrose” value is listed as 2,000,000 times and the “times as sweet as the wild-type brazzein in the same mass” value was 2,500 times. Moreover, the “Threshold value of sweetness experiment” value under setting [1] turned out to be 0.00158 µM. Moreover, under setting [2], the “Threshold value of sweetness experiment” value is given as 0.0000010 g (100 mL)^−1.
Regarding “K4R_H30R_E35D_E40A: brazzein multiple variant, 4th Lys to Arg in tertiary variant H30R_E35D_E40A, SEQ ID NO. 16 (DKCRKVYENYPVSKCQLANQCNYDCKLAKRARSGDCFYDAKRNLQCICDYCEY; Brazzein Variant)”, the “Level of sweetness compared to sucrose (g/g)” value is 2,857,143, the “Level of sweetness compared to sucrose (molecular)” value was 52727273, the “times as sweet as sucrose” value is 2,900,000 times and the “times as sweet as the wild-type brazzein in the same mass” value is recorded as 3,570 times. For the same compound, under setting [1], the “Threshold value of sweetness experiment” value stood at 0.0011 µM. Further, under setting [2], the “Threshold value of sweetness experiment” value was 0.0000007 g (100 mL)^−1.
As for “K4E_H30R_E35D_E40R: brazzein multiple variant, 4th Lys to Glu in tertiary variant H30R_E35D_E40R, SEQ ID NO. 21 (DKCEKVYENYPVSKCQLANQCNYDCKLAKRARSGDCFYDRKRNLQCICDYCEY; Brazzein Variant)”, the “Level of sweetness compared to sucrose (g/g)” value is 1,818,181, the “Level of sweetness compared to sucrose (molecular)” value was determined as 33761273, the “times as sweet as sucrose” value is on record as 1,800,000 times and the “times as sweet as the wild-type brazzein in the same mass” value is listed as 2,270 times. The “Threshold value of sweetness experiment” value under setting [1] stood at 0.00172 µM. In addition, the “Threshold value of sweetness experiment” value under setting [2] was 0.0000011 g (100 mL)^−1.
Consider “K4D_H30R_E35D_E40A: brazzein multiple variant, 4th Lys to Asp in tertiary variant H30R_E35D_E40A, SEQ ID NO. 14 (DKCDKVYENYPVSKCQLANQCNYDCKLAKRARSGDCFYDAKRNLQCICDYCEY; Brazzein Variant)”, for which the “Level of sweetness compared to sucrose (g/g)” value was 2,000,000, the “Level of sweetness compared to sucrose (molecular)” value came out at 36708861, the “times as sweet as sucrose” value is 2,000,000 times and the “times as sweet as the wild-type brazzein in the same mass” value was 2,500 times. Further, under setting [1], the “Threshold value of sweetness experiment” value is 0.00158 µM. The “Threshold value of sweetness experiment” value under setting [2] is given as 0.0000010 g (100 mL)^−1.
As to “K4R_H30R_E35D_E40D: brazzein multiple variant, 4th Lys to Arg in tertiary variant H30R_E35D_E40D, SEQ ID NO. 19 (DKCRKVYENYPVSKCQLANQCNYDCKLAKRARSGDCFYDDKRNLQCICDYCEY; Brazzein Variant)”, the “Level of sweetness compared to sucrose (g/g)” value was 1,666,666, the “Level of sweetness compared to sucrose (molecular)” value came out at 30860187, the “times as sweet as sucrose” value is on record as 1,700,000 times and the “times as sweet as the wild-type brazzein in the same mass” value was 2,080 times. In addition, the “Threshold value of sweetness experiment” value under setting [1] amounted to 0.00188 µM. Besides, under setting [2], the “Threshold value of sweetness experiment” value is recorded as 0.0000012 g (100 mL)^−1.
In the case of “K4E_H30R_E35D_E40D: brazzein multiple variant, 4th Lys to Glu in tertiary variant H30R_E35D_E40D, SEQ ID NO. 18 (DKCEKVYENYPVSKCQLANQCNYDCKLAKRARSGDCFYDDKRNLQCICDYCEY; Brazzein Variant)”, the “Level of sweetness compared to sucrose (g/g)” value is 1,250,000, the “Level of sweetness compared to sucrose (molecular)” value is on record as 23062250, the “times as sweet as sucrose” value is reported as 1,250,000 times and the “times as sweet as the wild-type brazzein in the same mass” value is listed as 1,560 times. Besides, the “Threshold value of sweetness experiment” value under setting [1] worked out at 0.00251 µM. Besides, under setting [2], the “Threshold value of sweetness experiment” value is listed as 0.0000016 g (100 mL)^−1.
Consider `OC[C@H]1O[C@@](CO)(O[C@H]2O[C@H](CO)[C@@H](O)[C@H](O)[C@H]2O)[C@@H](O)[C@@H]1O` [Sucrose, reference compound], for which the “Level of sweetness compared to sucrose (g/g)” value was 1 and the “Level of sweetness compared to sucrose (molecular)” value is given as 1. Also, the “Threshold value of sweetness experiment” value under setting [1] is 58,000 μM. Moreover, the “Threshold value of sweetness experiment” value under setting [2] is listed as 2.0 g (100 mL)^−1.
Take “K4D_H30R_E35D_E40K: brazzein multiple variant, 4th Lys to Asp in tertiary variant H30R_E35D_E40K, SEQ ID NO. 11 (DKCDKVYENYPVSKCQLANQCNYDCKLAKRARSGDCFYDKKRNLQCICDYCEY; Brazzein Variant)”: the “Level of sweetness compared to sucrose (g/g)” value is recorded as 1,598,481, the “Level of sweetness compared to sucrose (molecular)” value came to 28379848, the “times as sweet as sucrose” value was 1,500,000 times and the “times as sweet as the wild-type brazzein in the same mass” value is reported as 1,920 times. In addition, the “Threshold value of sweetness experiment” value under setting [1] was 0.00204 µM. Besides, the “Threshold value of sweetness experiment” value under setting [2] is 0.0000013 g (100 mL)^−1.
For the compound “K4D_H30R_E35D_E40D: brazzein multiple variant, 4th Lys to Asp in tertiary variant H30R_E35D_E40D, SEQ ID NO. 17 (DKCDKVYENYPVSKCQLANQCNYDCKLAKRARSGDCFYDDKRNLQCICDYCEY; Brazzein Variant)”, the “Level of sweetness compared to sucrose (g/g)” value is given as 1,333,333, the “Level of sweetness compared to sucrose (molecular)” value is 24545600, the “times as sweet as sucrose” value is given as 1,300,000 times and the “times as sweet as the wild-type brazzein in the same mass” value is reported as 1,670 times. Further, the “Threshold value of sweetness experiment” value under setting [1] came out at 0.00236 µM. Under setting [2], the “Threshold value of sweetness experiment” value is 0.0000015 g (100 mL)^−1.
For the compound “K4E_H30R_E35D_E40K: brazzein multiple variant, 4th Lys to Glu in tertiary variant H30R_E35D_E40K, SEQ ID NO. 12 (DKCEKVYENYPVSKCQLANQCNYDCKLAKRARSGDCFYDKKRNLQCICDYCEY; Brazzein Variant)”, the “Level of sweetness compared to sucrose (g/g)” value is reported as 1,666,666, the “Level of sweetness compared to sucrose (molecular)” value was found to be 30812500, the “times as sweet as sucrose” value is reported as 1,700,000 times and the “times as sweet as the wild-type brazzein in the same mass” value was 2,080 times. Under setting [1], the “Threshold value of sweetness experiment” value is 0.00188 µM. Further, the “Threshold value of sweetness experiment” value under setting [2] is given as 0.0000012 g (100 mL)^−1.
For the compound “K4R_H30R_E35D_E40R: brazzein multiple variant, 4th Lys to Arg in tertiary variant H30R_E35D_E40R, SEQ ID NO. 22 (DKCRKVYENYPVSKCQLANQCNYDCKLAKRARSGDCFYDRKRNLQCICDYCEY; Brazzein Variant)”, the “Level of sweetness compared to sucrose (g/g)” value is reported as 2,000,000, the “Level of sweetness compared to sucrose (molecular)” value turned out to be 37284000, the “times as sweet as sucrose” value is given as 2,000,000 times and the “times as sweet as the wild-type brazzein in the same mass” value was 2,500 times. The “Threshold value of sweetness experiment” value under setting [1] is 0.00156 µM. Also, the “Threshold value of sweetness experiment” value under setting [2] is on record as 0.0000010 g (100 mL)^−1.
For the compound “WT-Brazzein: wild-type brazzein, molecular weight 6501 in Table 3 (QDKCKKVYENYPVSKCQLANQCNYDCKLDKHARSGECFYDEKRNLQCICDYCEY; UniProt P56552 1-54, looked up) [reference compound]”, the “Level of sweetness compared to sucrose (g/g)” value worked out at 800 and the “Level of sweetness compared to sucrose (molecular)” value was 15,082. Moreover, under setting [1], the “Threshold value of sweetness experiment” value was 3.846 µM. Also, the “Threshold value of sweetness experiment” value under setting [2] was 0.0025 g (100 mL)^−1.

The values are drawn from US9826773B2, “Brazzen multiple variants of increased sweetness, and production method for same” (CHUNG-ANG UNIVERSITY INDUSTRY—ACADEMIC COOPERATION …, priority 2012, dated 2017).
